According to US20050130134A1, “Means and methods for monitoring non-nucleoside reverse transcriptase inhibitor antiretroviral therapy and guiding therapeutic decisions in the treatment HIV-AIDS” (ViroLogic, Inc., priority 2000, published 2005):

Experiments:
[1] = test system: RTV-268 patient virus (RT P236L with M41L, D67N, M184V, L210W, T215Y, K219Q); test: Phenotypic susceptibility assay, RTV-268 (patient 97-268); format: cell-based, HIV-1; details: RTV-268 patient virus compared to reference virus
Protocol: Resistance tests were carried out with resistance test vectors using two host cell types. Resistance test vector viral particles were produced by a first host cell (the resistance test vector host cell) that was prepared by transfecting a packaging host cell with the resistance test vector and the packaging expression vector. The resistance test vector viral particles were then used to infect a second host cell (the target host cell) in which the expression of the indicator gene is measured.
The resistance test vectors containing a functional luciferase gene cassette were constructed and host cells were transfected with the resistance test vector DNA. The resistant test vectors contained patient-derived reverse transcriptase and protease sequences that were either susceptible or resistant to the antiretroviral agents, such as nucleoside reverse transcriptase inhibitors, non-nucleoside reverse transcriptase inhibitors and protease inhibitors. The resistance test vector viral particles produced by transfecting the resistance test vector DNA into host cells, either in the presence or absence of protease inhibitors, were used to infect target host cells grown either in the absence of NRTI or NNRTI or in the presence of increasing concentrations of the drug. The amount of luciferase activity produced in infected target host cells in the presence of drug was compared to the amount of luciferase produced in infected target host cells in the absence of drug. Drug resistance was measured as the amount of drug required to inhibit by 50% the luciferase activity detected in the absence of drug (inhibitory concentration 50%, IC50). The IC50 values were determined by plotting percent drug inhibition vs. log10 drug concentration.
Host cells were seeded in 10-cm-diameter dishes and were transfected several days after plating with resistance test vector plasmid DNA and the envelope expression vector. Transfections were performed using a calcium-phosphate precipitation procedure. The cell culture media containing the DNA precipitate was replaced with fresh medium, from one to 24 hours, after transfection. Cell culture media containing resistance test vector viral particles was harvested one to four days after transfection and was passed through a […] filter before being stored at −80° C. HIV capsid protein (p24) levels in the harvested cell culture media were determined by an EIA method as described by the manufacturer (SIAC; Frederick, Md.). Before infection, target cells (293 and 293/T) were plated in cell culture media. Control infections were performed using cell culture media from mock transfections (no DNA) or transfections containing the resistance test vector plasmid DNA without the envelope expression plasmid. One to three or more days after infection the media was removed and cell lysis buffer (Promega) was added to each well. […] The inhibitory effect of the drug was determined using the following equation: % luciferase inhibition=1-(RLUluc[drug]÷RLUluc)×100 where RLUluc [drug] is the relative light unit of luciferase activity in infected cells in the presence of drug and RLUluc is the Relative Light Unit of luciferase activity in infected cells in the absence of drug. IC50 values were obtained from the sigmoidal curves that were generated from the data by plotting the percent inhibition of luciferase activity vs. the log10 drug concentration.
A resistance test vector was constructed as described in Example 1 from a patient sample designated 97-268. […] Isolation of viral RNA and RT/PCR was used to generate a patient derived segment that comprised viral sequences coding for all of PR and amino acids 1-313 of RT. The patient derived segment was inserted into a indicator gene viral vector to generate a resistance test vector designated RTV-268.

[2] = test system: Tyr181Cys (Y181C) mutation of HIV RT; details: cited from earlier work
[3] = test system: T66I integrase site-directed mutant; test: Phenotypic susceptibility assay, integrase T66I mutated resistance test vector; format: cell-based, HIV; details: T66I integrase mutant, FIG. 10
Protocol: Transfections were performed using a calcium-phosphate precipitation procedure. […] Cell lysates were assayed for luciferase activity (FIG. 3). […] The drug inhibition curves are shown in (FIG. 3).
A resistance test vector containing the threonine to isoleucine mutation at position 66 of the integrase protein (T66I) was constructed and tested using the phenotypic assay described earlier.

| Compound | change in susceptibility / resistance [1] | also measured |
| --- | --- | --- |
| Cc1cn([C@H]2C[C@H](N=[N+]=[N-])[C@@H](CO)O2)c(=O)[nH]c1=O [AZT] | significant resistance |  |
| Nc1ccn([C@@H]2CS[C@H](CO)O2)c(=O)n1 [3TC] | significant resistance |  |
| Cc1cn([C@H]2C=C[C@@H](CO)O2)c(=O)[nH]c1=O [d4T] | slight shifts in susceptibility |  |
| CCc1cc(CCc2nc3ccccc3o2)c(=O)[nH]c1C [L-696,229] |  | change in susceptibility [2]: reduced susceptibility |
| Nc1ccn([C@H]2CC[C@@H](CO)O2)c(=O)n1 [ddC] | slight shifts in susceptibility |  |
| O=c1[nH]cnc2c1ncn2[C@H]1CC[C@@H](CO)O1 [ddI] | slight shifts in susceptibility |  |
| O=C(O)C(=O)CC(=O)c1cccn1Cc1ccc(F)cc1 [L-731,988] |  | reduction in susceptibility compared to wild type control RTV [3]: 4.7 fold |
| CCc1cc(NCc2nc3c(Cl)ccc(Cl)c3o2)c(O)nc1C [L-697,661] |  | change in susceptibility [2]: reduced susceptibility |
